Assay results as given in patent US11358972B2, “Pentacyclic heterocycles” (Eisai R&D Management Co., Ltd., priority 2019, dated 2022).

Legend:
[1] = test system: Choline Acetyltransferase (ChAT) mRNA; assay: Measurement of choline acetyltransferase (ChAT) mRNA expression levels in the rat septal area; format: in vivo; settings: po, SD male rats, medial septum, 24 hours after administration, read-out: Amount (%) increased from the amount of ChAT mRNA expression levels in the vehicle administration group; for change in vivo at 3 mg/kg: 3 mg/kg orally; for change in vivo at 1 mg/kg: 1 mg/kg orally
Method: Measurement of Choline Acetyltransferase (ChAT) mRNA Expression Levels in the Rat Septal Area (1) Compound Administration
In this study, Sprague-Dawley male rats (Charles River Laboratories Japan, Inc.) with a body weight of about 250 to 350 g were used. The test compound was dissolved in 0.01 mol/L hydrochloric acid, and orally administered.
At 24 hours after the administration of the compound, the whole brain tissue was collected under pentobarbital anesthesia. The medial septum was isolated from whole brain on ice and frozen with liquid nitrogen, and then stored at −80° C.
(3) Measurement of ChAT mRNA Expression Levels
For RNA purification, RNeasy™ Plus Mini Kit (#74136: QIAGEN) was used in this study. RNA purification was performed by the method described in the kit After RNA purification, the total RNA concentration was measured by using QIAxpert Instrument (QIAGEN). cDNA was synthesized using SuperScript™ VILO™ cDNA Synthesis Kit (#11754: Thermo Fisher Scientific). The synthesis of cDNA was performed by the method described in the kit. The synthesized cDNA was diluted 4 times with RNase free water, and the diluted cDNA solution was used as a sample. Taqman™ Universal PCR Master Mix (#4304437: Thermo Fisher Scientific), Taqman™ Gene Expression Assays, INVENTORIED (#4331182: Thermo Fisher Scientific), RNase free water, and the cDNA solution were mixed in amounts of 10 μL, 1 μL, 4 μL, and 5 μL, respectively, and the resulting mixture was used as a measurement sample solution. Quantitative polymerase chain reaction (qPCR) was conducted using ABI PRISM™ 7900HT (Thermo Fisher Scientific) by a fluorescence probe method. Analysis was performed by SDS 2.4 (Thermo Fisher Scientific). The results were calculated by the percentage of the amount of ChAT mRNA expression levels in the compound administration group increased from the amount of ChAT mRNA expression levels in the vehicle administration group.

[2] = test system: Rat primary septal neuron culture; assay: Measurement of acetylcholine (ACh) release in the rat primary septal neuron culture system; format: cell-based; settings: 24 h, rat primary septal neurons, with NGF, ACh release measured by HPLC one day after compound addition, read-out: Concentration (μM) showing a 20% or more increase from the amount of ACh in the control group
Source text: Measurement of Acetylcholine (ACh) Release in the Rat Primary Septal Neuron Culture System
(1) Rat Primary Septal Neuron Culture
The septal area was isolated from Sprague-Dawley (SD) rats (Charles River Laboratories Japan, Inc.) at a fetal age of 18 days, and cultured. Specifically, fetuses were removed from pregnant rats under isoflurane anesthesia. The brain was extracted from each fetus, and immersed in ice-cooled L-15 medium (11415-064, Thermo Fisher Scientific). The septal area was dissected from the extracted brain under a stereoscopic microscope. The dissected septal area was treated in 0.25% trypsin (15050-065, Thermo Fisher Scientific) and 0.01% DNase (D5025-150KU, Sigma) at 37° C. for 30 minutes, thereby dispersing the cells. In this case, the enzyme reaction was terminated by adding inactivated horse serum (26050-088, Thermo Fisher Scientific). The enzyme-treated solution was centrifuged at 1000 rpm for 3 minutes, and the supernatant was removed. A medium in an amount of 10 mL was added to the obtained cell mass. The medium used was Dulbecco's Modified Eagle's Medium (044-29765, WAKO) supplemented with N2 supplement (17502-048, Thermo Fisher Scientific), 1 mM sodium pyruvate (11360-070, Thermo Fisher Scientific), and Penicillin-Streptomycin (15140-1221, Thermo Fisher Scientific). The cells of the cell mass to which the medium was added were redispersed by gentle pipetting, and then centrifuged again at 1000 rpm for 3 minutes, and the supernatant was removed. The medium in an amount of 10 mL was added to the obtained cell mass, and the cell dispersion was filtered through a 40-μm nylon mesh (Cell Strainer) to remove the cell mass, thereby obtaining a neuronal cell suspension. The neuronal cell suspension was diluted with the medium, and 10% inactivated bovine serum (26140-079, Thermo Fisher Scientific) and 10% inactivated horse serum were added. Thereafter, 100 μL/well of the suspension was seeded in a 96-well plate (354461, CORNING) pre-coated with poly-D-lysine so that the initial culture density was 1.2×10^5 cells/cm^2. After the seeded cells were cultured under 5% CO2-95% air in a 37° C. incubator for 2 days, the entire medium was replaced with 120 μL of fresh medium, and the cells were subsequently cultured for 5 days.
On the 7th day of culture, compounds were added in the following manner. A solution of the test compound in DMSO was diluted with the medium so that the concentration was 10 times higher than the final concentration. Nerve Growth Factor (450-01, PEPRO TECH, INC.) was prepared at […]. These two solutions were added each in an amount of 15 μL/well, and the mixture was mixed well. The final DMSO concentration was 0.1% or less. Moreover, only DMSO and NGF were added to the control group.
(3) ACh Release Measurement
One day after the compound addition, an amount of ACh release was measured by HPLC in the following manner. A warmed buffer was added at 100 μL/well to the well after the medium was eliminated, and the buffer was immediately removed. Thereafter, a buffer to which 10 μm choline, 10 μm physostigmine, and 6 mM KCl were added was added at 120 μL/well. The buffer was prepared by adding 125 mM NaCl, 25 mM 4-(2-hydroxyethyl)-1-piperazineethanesulfonic acid, 1.2 mM KH2PO4, 1.2 mM MgSO4, 2.2 mM CaCl2 (2H2O), and 10 mM glucose to sterilized water, and the final pH of the solution was set to 7.4. After the 96-well plate to which the buffer was added was incubated under 5% CO2-95% air in a 37° C. incubator for 40 minutes, 80 μL of buffer was collected. An internal standard solution IPHC (5×10^−7 M) was added in an amount of 6 μL to the collected buffer, and the buffer was transferred to a tube for HPLC measurement and subjected to HPLC measurement. […]

Compound: COCCN1CCc2c(sc3nc4n(c(=O)c23)[C@@H]2CCC[C@@H]2C(=O)N(C)C4)C1 [Example 8]
- change in vivo at 3 mg/kg [1]: 71.8%
- minimal effective concentration [2]: 0.03 µM

Compound: CN1Cc2nc3c(oc4cc(C(F)(F)F)ccc43)c(=O)n2[C@H]2CCC[C@@H]2C1=O [Example 12, (3aS,14aS)-5-methyl-10-(trifluoromethyl)-2,3,3a,5,6,14a-hexahydro-1H-benzofuro[3′,2′:4,5]pyrimido[1,2-a]cyclopenta[f][1,4]diazepine-4,13-dione]
- change in vivo at 1 mg/kg [1]: 44.7%
- minimal effective concentration [2]: 0.03 µM

Compound: CN1CCc2sc3c(=O)n4c(nc3c2C1)CN(C)C(=O)[C@@H]1CCC[C@H]14 [Example 14, (3aR,14aR)-5,9-dimethyl-2,3,3a,5,6,8,9,10,11,14a-decahydro-1H-cyclopenta[f]pyrido[3″,4″:4′,5′]thieno[3′,2′:4,5]pyrimido[1,2-a][1,4]diazepine-4,13-dione]
- change in vivo at 1 mg/kg [1]: 63.6%
- minimal effective concentration [2]: 0.03 µM

Compound: CN1C[C@H]2C(=O)N(C)Cc3nc4sc5c(c4c(=O)n3[C@H]2C1)CC[C@@H](F)C5 [Example 15, (3aR,10R,14aR)-10-fluoro-2,5-dimethyl-2,3,3a,5,6,9,10,11,12,14a-decahydro-1H-benzo[4′,5′]thieno[2′,3′:4,5]pyrimido[1,2-a]pyrrolo[3,4-f][1,4]diazepine-4,13-dione]
- change in vivo at 1 mg/kg [1]: 49%
- minimal effective concentration [2]: 0.3 µM

Compound: Cc1cc(C)c2c(n1)oc1c(=O)n3c(nc12)CN(C)C(=O)[C@H]1CCC[C@H]13 [Example 4, (3aS,14aR)-5,8,10-trimethyl-3,3a,5,6-tetrahydro-1H-cyclopenta[f]pyrido[3″,2″:4′,5′]furo[3′,2′:4,5]pyrimido[1,2-a][1,4]diazepine-4,13(2H,14aH)-dione]
- change in vivo at 1 mg/kg [1]: 51.5%
- minimal effective concentration [2]: 0.1 µM

Compound: CN1Cc2nc3c(oc4cc(C(F)F)ccc43)c(=O)n2[C@@H]2CCC[C@@H]2C1=O [Example 9]
- change in vivo at 3 mg/kg [1]: 112%
- minimal effective concentration [2]: 0.03 µM

Compound: CN1CCc2c(sc3nc4n(c(=O)c23)C(C)(C)CC(=O)N2C[C@H](F)C[C@H]42)C1 [Example 10, (2R,15bR)-2-fluoro-7,7,12-trimethyl-1,2,3,6,7,10,11,12,13,15b-decahydro-5H,9H-pyrido[4″,3″:4′,5′]thieno[2′3′:4,5]pyrimido[1,2-a]pyrrolo[2,1-c][1,4]diazepine-5,9-dione]
- change in vivo at 1 mg/kg [1]: 50.6%
- minimal effective concentration [2]: 0.03 µM

Compound: CN1Cc2nc3c(oc4cc(F)ccc43)c(=O)n2[C@@H]2CCC[C@H]2C1=O [Example 5, (3aR,14aR)-10-fluoro-5-methyl-3,3a,5,6-tetrahydro-1H-benzofuro[3′,2′:4,5]pyrimido[1,2-a]cyclopenta[f][1,4]diazepine-4,13(2H,14aH)-dione]
- change in vivo at 1 mg/kg [1]: 54.1%
- minimal effective concentration [2]: 0.03 µM

Compound: CN1CCc2c(sc3nc4n(c(=O)c23)C(C)(C)CC(=O)N2CCCC42)C1 (single isomer, unassigned; (+)) [Example 2, (+)-7,7,12-trimethyl-1,2,3,6,7,10,11,12,13,15b-decahydropyrido[4″,3″:4′,5′]thieno[2′,3′:4,5]pyrimido[1,2-a]pyrrolo[2,1-c][1,4]diazepine-5,9-dione]
- change in vivo at 3 mg/kg [1]: 53.6%
- minimal effective concentration [2]: 0.03 µM

Compound: CN1Cc2nc3c(oc4ccccc43)c(=O)n2[C@@H]2CCC[C@@H]2C1=O [Example 1, (3aS,14aR)-5-methyl-3,3a,5,6-tetrahydro-1H-benzofuro[3′,2′:4,5]pyrimido[1,2-a]cyclopenta[f][1,4]diazepine-4,13(2H,14aH)-dione]
- change in vivo at 10 mg/kg ([1]; 10 mg/kg orally): 76%
- minimal effective concentration [2]: 0.03 µM

Compound: CN1Cc2nc3c(oc4cc(F)ccc43)c(=O)n2[C@@H]2CCC[C@@H]2C1=O [Example 3, (3aS,14aR)-10-fluoro-5-methyl-3,3a,5,6-tetrahydro-1H-benzofuro[3′,2′:4,5]pyrimido[1,2-a]cyclopenta[f][1,4]diazepine-4,13(2H,14aH)-dione]
- change in vivo at 1 mg/kg [1]: 53.7%
- minimal effective concentration [2]: 0.03 µM

Compound: CN1Cc2nc3c(oc4cc(C(F)(F)F)ccc43)c(=O)n2[C@@H]2CCC[C@H]2C1=O [Example 6]
- change in vivo at 0.3 mg/kg ([1]; 0.3 mg/kg orally): 67.7%
- minimal effective concentration [2]: 0.03 µM

Compound: COCCN1CCc2c(sc3nc4n(c(=O)c23)C(C)(C)CC(=O)N2CCCC42)C1 (single isomer, unassigned; (-)) [Example 13, (−)-12-(2-methoxyethyl)-7,7-dimethyl-1,2,3,6,7,10,11,12,13,15b-decahydro-5H,9H-pyrido[4″,3″:4′,5′]thieno[2′3′:4,5]pyrimido[1,2-a]pyrrolo[2,1-c][1,4]diazepine-5,9-dione]
- change in vivo at 1 mg/kg [1]: 59.7%
- minimal effective concentration [2]: 0.03 µM

Compound: CN1Cc2nc3c(oc4ccccc43)c(=O)n2[C@@H]2CN(CCF)C[C@H]2C1=O (relative stereo) [Example 17, (−)-(3a,14a-trans)-2-(2-fluoroethyl)-5-methyl-2,3,3a,5,6,14a-hexahydro-1H-benzofuro[3′,2′:4,5]pyrimido[1,2-a]pyrrolo[3,4-f][1,4]diazepine-4,13-dione]
- change in vivo at 3 mg/kg [1]: 44.6%
- minimal effective concentration [2]: 0.03 µM

Compound: CN1CCc2c(sc3nc4n(c(=O)c23)[C@H]2COC[C@H]2C(=O)N(C)C4)C1 [Example 11, (+)-(3a,14a-cis)-5,10-dimethyl-1,3,3a,5,6,9,10,11,12,14a-decahydrofuro[3,4-f]pyrido[4″,3″:4′,5′]thieno[2′,3′:4,5]pyrimido[1,2-a][1,4]diazepine-4,13-dione]
- change in vivo at 1 mg/kg [1]: 54.7%
- minimal effective concentration [2]: 0.03 µM
